Target: T1, Dihydrofolate reductase (Rattus norvegicus, UniProt Q920D2)
T1 sequence (Q920D2 whole entry): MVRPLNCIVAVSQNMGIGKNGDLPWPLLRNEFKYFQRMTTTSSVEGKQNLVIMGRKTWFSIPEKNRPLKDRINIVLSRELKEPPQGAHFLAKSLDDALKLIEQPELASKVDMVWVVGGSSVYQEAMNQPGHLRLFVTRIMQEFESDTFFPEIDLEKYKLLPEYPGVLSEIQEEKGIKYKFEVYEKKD
Test: Inhibitory activity against dihydrofolate reductase of rat liver

| Compound | IC50 |
| --- | --- |
| Nc1nc(N)c2c(S(=O)(=O)c3ccc4ccccc4c3)cccc2n1 | 15100 nM |
| Nc1nc(N)c2cc(Cl)ccc2n1 | 3980 nM |
| Nc1nc(N)c2c(Cl)c(N)ccc2n1 | 661 nM |
| Nc1nc(N)c2cc(C=O)ccc2n1 | 10000 nM |
| Nc1nc(N)c2c(Sc3ccc4ccccc4c3)cccc2n1 | 7.08 nM |
| Nc1nc(N)c2cc(NC(=O)Cc3ccc(Cl)cc3)ccc2n1 | 22.9 nM |
| Nc1nc(N)c2c(/C=C\c3ccc4ccccc4c3)cccc2n1 | 5250 nM |
| Nc1nc(N)c2c(Cl)cccc2n1 | 562 nM |
| Nc1nc(N)c2c([S+]([O-])c3ccc(Cl)c(Cl)c3)cccc2n1 (stereo not drawn) | 55000 nM |
| Nc1nc(N)c2cc([S+]([O-])c3ccc4ccccc4c3)ccc2n1 (stereo not drawn) | 7.08 nM |
| Nc1nc(N)c2c(/C=C/c3ccc4ccccc4c3)cccc2n1 | 3020 nM |
| Cc1ccc2nc(N)nc(N)c2c1 | 2190 nM |
| Nc1nc(N)c2c(S(=O)(=O)c3ccc(Cl)c(Cl)c3)cccc2n1 | 57500 nM |
| Cc1c(NC(=O)Cc2cccc(Br)c2)ccc2nc(N)nc(N)c12 | 33.9 nM |
| Nc1nc(N)c2c(CSc3ccc(Cl)cc3)cccc2n1 | 19.9 nM |
| Cc1c(NC(=O)Cc2ccc3ccccc3c2)ccc2nc(N)nc(N)c12 | 4.17 nM |
| Nc1nc(N)c2c(Cl)c(Br)ccc2n1 | 100 nM |
| O=[N+]([O-])c1ccc(/C=C/C=C/c2ccccc2)cc1 | 3.98 nM |
| Nc1nc(N)c2cc(Sc3cccc(C(F)(F)F)c3)ccc2n1 [WR-159412] | 36.3 nM |

More lines, now with the values ahead:

| IC50 | Compound |
| --- | --- |
| 7.59 nM | Nc1nc(N)c2c(Cl)c(NCc3cccc(Br)c3)ccc2n1 |
| 5.01 nM | Nc1nc(N)c2c(Cl)c(NC(=O)Cc3ccc4ccccc4c3)ccc2n1 |
| 9330 nM | NCc1ccc2nc(N)nc(N)c2c1 |
| 5.01 nM | Nc1nc(N)c2cc(NC(=O)Cc3ccc4ccccc4c3)ccc2n1 |
| 200 nM | Nc1nc(N)c2c(Cl)c(Cl)ccc2n1 |
| 17 nM | Cc1c(NC(=O)Cc2ccc(Cl)c(Cl)c2)ccc2nc(N)nc(N)c12 |
| 18.2 nM | Nc1nc(N)c2cc(NCc3ccc(Cl)c(Cl)c3)ccc2n1 |
| 11 nM | Nc1nc(N)c2cc(Sc3ccc(Cl)c(Cl)c3)ccc2n1 |
| 10 nM | Nc1nc(N)c2c(CSc3ccc4ccccc4c3)cccc2n1 |
| 24 nM | Nc1nc(N)c2c(Cl)c(NC(=O)Cc3ccc(Cl)c(Cl)c3)ccc2n1 |
| 200 nM | Nc1nc(N)c2c(Sc3ccc(Cl)c(Cl)c3)cccc2n1 |
| 813 nM | Cc1cccc2nc(N)nc(N)c12 [GNF-Pf-690] |
| 26900 nM | Nc1ccc2nc(N)nc(N)c2c1 [QUINAZOLINE-2,4,6-TRIAMINE] |
| 19.9 nM | Nc1nc(N)c2c(CCc3ccc4ccccc4c3)cccc2n1 [TCMDC-141975] |

Reference: BindingDB's records for doi:10.1021/jm00139a009 (1981)
